Consider 13 compounds from ChEMBL document CHEMBL4052676, “Anti-diabetic xanthones from the bark of Garcinia xanthochymus” (Bioorg Med Chem Lett, 2017).

The nature of assay [1]: Inhibition of Saccharomyces cerevisiae alpha-glucosidase pre-incubated for 10 mins before p-nitrophenyl […]-D-glucopyranoside substrate addition and measured every 30 secs for 35 mins post substrate addition.
Assay [2] concerns the target T1, Tyrosine-protein phosphatase non-receptor type 1 (Homo sapiens, UniProt P18031).
T1 sequence (P18031 whole entry): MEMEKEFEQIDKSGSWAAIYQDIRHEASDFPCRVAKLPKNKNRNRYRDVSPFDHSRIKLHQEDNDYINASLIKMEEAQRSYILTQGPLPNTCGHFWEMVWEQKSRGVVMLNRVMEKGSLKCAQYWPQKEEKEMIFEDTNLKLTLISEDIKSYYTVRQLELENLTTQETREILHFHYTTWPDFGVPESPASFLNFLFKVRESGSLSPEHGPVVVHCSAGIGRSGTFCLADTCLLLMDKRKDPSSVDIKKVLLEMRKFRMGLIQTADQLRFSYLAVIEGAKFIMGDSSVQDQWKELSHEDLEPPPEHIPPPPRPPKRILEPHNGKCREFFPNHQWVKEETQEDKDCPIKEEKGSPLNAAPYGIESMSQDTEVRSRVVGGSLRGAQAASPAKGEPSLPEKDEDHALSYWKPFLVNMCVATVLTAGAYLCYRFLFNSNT
As to the kind of experiment: Inhibition of human recombinant PTP1B pre-incubated for 10 mins before pnitrophenyl phosphate substrate addition and measured every 30 secs for 10 mins.

SMILES strings stand for the structures.

On to `C=CC(C)(C)c1cc(O)c(O)c2c(=O)c3cc4c(c(O)c3oc12)OC(C)(C)C=C4`, for which the IC50 entry was “Not Active” in assay [1] and 49.4 µM in assay [2] (read-out: IC50).
For `COc1c(O)cc2oc3cc4occc4c(O)c3c(=O)c2c1C/C=C(\C)CCC=C(C)C`, the IC50 was determined as 94.2 µM in assay [1] (read-out: IC50) and 55.1 µM in assay [2] (read-out: IC50).
In the case of `C=CC(C)(C)c1cc(O)c2oc3c(O)cccc3c(=O)c2c1O`, the IC50 in assay [1] (read-out: IC50) was 85.5 µM; in assay [2] it was “Not Active”.
Turning to `C[C@H]1O[C@H](O[C@H]2[C@H](O)[C@@H](O)[C@@H](O[C@H]3[C@H](O)[C@@H](O)C(O)O[C@@H]3CO)O[C@@H]2CO)[C@H](O)[C@@H](O)[C@@H]1N[C@H]1C=C(CO)[C@@H](O)[C@H](O)[C@H]1O` (stereo not given in full) [ACARBOSE], the half-inhibitory concentration (IC50) in assay [1] (read-out: IC50) is 900 µM.
For the compound `C=CC(C)(C)c1cc(O)c2oc3c(O)c4occc4cc3c(=O)c2c1O`, the values for the IC50 in assay [1] (read-out: IC50) and in assay [2] (read-out: IC50) were 142 µM and 26.8 µM, respectively.
For `O=c1c2cccc(O)c2oc2c(O)ccc(O)c12`, in that order: 358 µM and 148 µM.
Regarding `O=c1c2cc(O)ccc2oc2cccc(O)c12`, the values for the 50% inhibitory concentration (IC50) result in assay [1] and in assay [2] (read-out: IC50) were “Not Active” and 150 µM, respectively.
Turning to `O=c1c2cc(O)ccc2oc2ccc(O)c(O)c12`, the concentration for half-maximal inhibition (IC50) is 31.4 µM in assay [1] (read-out: IC50) and 120 µM in assay [2] (read-out: IC50).
In the same order, the values of `C=CC(C)(C)c1cc(O)c(O)c2c(=O)c3cccc(O)c3oc12` are 29.8 µM and 73.2 µM.
For `C=CC(C)(C)c1cc(O)c2oc3c(O)c4c(cc3c(=O)c2c1O)C=CC(C)(C)O4`, in that order: 36.7 µM and 8 µM.
`C=CC(C)(C)c1cc(O)c2oc3c(O)c(O)ccc3c(=O)c2c1O`: the IC50 is 4.1 µM in assay [1] (read-out: IC50) and 53 µM in assay [2] (read-out: IC50).
On to `C=CC(C)(C)c1cc(O)c(O)c2c(=O)c3ccc(O)c(O)c3oc12`, for which the half-maximal inhibitory concentration (IC50) in assay [1] (read-out: IC50) stood at 27.5 µM; in assay [2] (read-out: IC50) it was 85.5 µM.
For `C=CC(C)(C)c1cc(O)c(O)c2c(=O)c3cc4ccoc4c(O)c3oc12`, in that order: 134 µM and 45.2 µM.

The IC50 is the point on the concentration scale where inhibition reaches its midpoint.
